Consider 14 molecules from ChEMBL document CHEMBL1629591, “Codetection of blaOXA-23-like gene (blaOXA-133) and blaOXA-58 in Acinetobacter radioresistens: report from the SENTRY antimicrobial surveillance program” (2009).

Holding throughout (type): functional
The subject of test [1] is Acinetobacter radioresistens. As to the kind of experiment: Antimicrobial activity against Acinetobacter radioresistens 251-39C expressing beta-lactamase OXA-133 by CLSI method.
Test [2] relates to Acinetobacter radioresistens. The test is described as follows: Antimicrobial activity against plasmid encoded beta-lactamase OXA-58 deficient Acinetobacter radioresistens by CLSI method.
Test [3] deals with Acinetobacter radioresistens. As to the kind of experiment: Antimicrobial activity against plasmid encoded beta-lactamase OXA-58 deficient Acinetobacter radioresistens by CLSI method in presence of beta-lactamase inhibitor Sulbactam.
The test system of test [4] is Acinetobacter radioresistens. The test is described as follows: Antimicrobial activity against Acinetobacter radioresistens 251-39C expressing beta-lactamase OXA-133 by CLSI method in presence of beta-lactamase inhibitor Sulbactam.
Test [5] deals with Acinetobacter radioresistens. As to the kind of experiment: Antimicrobial activity against Acinetobacter radioresistens 251-39C expressing beta-lactamase OXA-133 by CLSI method in presence of beta-lactamase inhibitor Tazobactam.
In test [6] the test system is Acinetobacter radioresistens. The test is described as follows: Antimicrobial activity against plasmid encoded beta-lactamase OXA-58 deficient Acinetobacter radioresistens by CLSI method in presence of beta-lactamase inhibitor Tazobactam.
Test [7] relates to Acinetobacter radioresistens. The test is described as follows: Antimicrobial activity against plasmid encoded beta-lactamase OXA-58 deficient Acinetobacter radioresistens by CLSI method in presence of beta-lactamase inhibitor clavulanate.
The subject of test [8] is Acinetobacter radioresistens. The test is described as follows: Antimicrobial activity against Acinetobacter radioresistens 251-39C expressing beta-lactamase OXA-133 by CLSI method in presence of beta-lactamase inhibitor clavulanate.

In brackets after ≈: the same amount, converted by molar mass. Where only a bound is given, the exact number is not on record here.

Turning to `NCC[C@H](O)C(=O)N[C@@H]1C[C@H](N)[C@@H](O[C@H]2O[C@H](CN)[C@@H](O)[C@H](O)[C@H]2O)[C@H](O)[C@H]1O[C@H]1O[C@H](CO)[C@@H](O)[C@H](N)[C@H]1O` [AMIKACIN], the MIC in test [1] and in test [2] was 0.5 µg/mL (≈ 0.854 µM) each time.
On to `C[C@@H](O)[C@H]1C(=O)N2C(C(=O)O)=C(S[C@@H]3CN[C@H](C(=O)N(C)C)C3)[C@H](C)[C@H]12` [MEROPENEM], for which the MIC (in general, the lowest concentration that inhibits growth of the organism) turned out to be 1 µg/mL (≈ 2.61 µM) in test [1] and 0.25 µg/mL (≈ 0.652 µM) in test [2].
On to `CC(C)(O/N=C(\C(=O)N[C@@H]1C(=O)N2C(C(=O)[O-])=C(C[n+]3ccccc3)CS[C@H]12)c1csc(N)n1)C(=O)O` [CEFTAZIDIME], for which the MIC in test [1] and in test [2] was 0.5 µg/mL (≈ 0.915 µM) in each case.
On to `C[C@@H](O)[C@H]1C(=O)N2C(C(=O)O)=C(S[C@@H]3CN[C@H](C(=O)Nc4cccc(C(=O)O)c4)C3)[C@H](C)[C@H]12`, for which the MIC in test [1] is 4 µg/mL (≈ 8.41 µM); in test [2] it was 1 µg/mL (≈ 2.1 µM).
Take `CC1(C)S[C@@H]2[C@H](NC(=O)[C@H](N)c3ccccc3)C(=O)N2[C@H]1C(=O)O` [AMPICILLIN]: the minimum inhibitory concentration (MIC) in test [3] and in test [4] was 1 µg/mL each time.
`CO[C@@]1(NC(=O)Cc2cccs2)C(=O)N2C(C(=O)O)=C(COC(N)=O)CS[C@@H]21` [CEFOXITIN]: the MIC in test [1] and in test [2] was 8 µg/mL (≈ 18.7 µM) throughout.
Consider `CN(C)[C@@H]1C(O)=C(C(N)=O)C(=O)[C@@]2(O)C(O)=C3C(=O)c4c(O)cccc4[C@@](C)(O)[C@H]3C[C@@H]12` [TETRACYCLINE], for which the minimum inhibitory concentration (MIC) in test [1] and in test [2] was at most 2 µg/mL in each case.
With `NC[C@H]1O[C@H](O[C@H]2[C@H](O)[C@@H](O[C@H]3O[C@H](CO)[C@@H](O)[C@H](N)[C@H]3O)[C@H](N)C[C@@H]2N)[C@H](N)C[C@@H]1O` [TOBRAMYCIN], the MIC in test [1] and in test [2] was 2 µg/mL (≈ 4.28 µM) in each case.
Regarding `CO/N=C(\C(=O)N[C@@H]1C(=O)N2C(C(=O)O)=C(CSc3nc(=O)c(O)nn3C)CS[C@H]12)c1csc(N)n1` [CEFTRIAXONE], the MIC in test [1] came to 4 µg/mL (≈ 7.21 µM); in test [2], 2 µg/mL (≈ 3.61 µM).
The like results for POLYMYXIN B were, in that order, below 0.5 µg/mL and below 0.5 µg/mL.
As for `C[C@@H](O)[C@H]1C(=O)N2C(C(=O)O)=C(SCCNC=N)C[C@H]12` [IMIPENEM ANHYDROUS], the MIC stood at 8 µg/mL (≈ 26.7 µM) in test [1] and 0.25 µg/mL (≈ 0.835 µM) in test [2].
For `CCN1CCN(C(=O)N[C@@H](C(=O)N[C@@H]2C(=O)N3[C@@H]2SC(C)(C)[C@@H]3C(=O)O)c2ccccc2)C(=O)C1=O` [PIPERACILLIN], the MIC in test [5] stood at 64 µg/mL; in test [6], 1 µg/mL.
With `CC1(C)S[C@@H]2[C@H](NC(=O)[C@H](C(=O)O)c3ccsc3)C(=O)N2[C@H]1C(=O)O` [TICARCILLIN], the figures for the MIC in test [7] and in test [8] were 4 µg/mL and above 256 µg/mL, respectively.
Take `CC1(C)S[C@@H]2[C@H](NC(=O)[C@H](N)c3ccc(O)cc3)C(=O)N2[C@H]1C(=O)O` [AMOXICILLIN]: the minimal inhibitory concentration (MIC) in test [7] stood at 2 µg/mL; in test [8] it was 32 µg/mL.
